# Measurements taken from patent US5869265A, “Ileal bile acid transporter compositions and methods” (Wake Forest University, priority 1996, dated 1999).
# Where two headings read alike, the source gives them in different places.
# Experiments:
# [1] = target: T1, human ileal/renal bile acid transporter (Homo sapiens, UniProt Q12908, S171A); assay: Substrate specificity: [^3 H]taurocholate competition in HIBAT-transfected COS cells (Dixon plot); format: cell-based; parameters: were fused to make a single clone encoding the entire gene; expressed in transfected cells; host or cells: COS cells, transient DEAE-dextran transfection with pCMV5-HIBAT
# T1 sequence (Q12908 1-348 S171A): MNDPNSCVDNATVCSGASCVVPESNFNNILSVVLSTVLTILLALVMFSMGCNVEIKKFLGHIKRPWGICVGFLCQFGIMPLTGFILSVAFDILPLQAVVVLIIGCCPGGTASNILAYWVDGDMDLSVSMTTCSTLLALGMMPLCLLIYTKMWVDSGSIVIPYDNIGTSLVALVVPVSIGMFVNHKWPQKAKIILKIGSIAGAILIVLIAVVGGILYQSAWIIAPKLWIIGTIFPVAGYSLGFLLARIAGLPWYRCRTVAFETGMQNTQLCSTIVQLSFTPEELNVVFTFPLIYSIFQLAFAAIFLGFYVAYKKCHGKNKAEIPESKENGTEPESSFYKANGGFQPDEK
# Description: It is the ileal/renal bile acid transporter system's remarkable substrate specificity that makes it an appealing pharmacological target for the treatment of hypercholesterolemia by interrupting the enterohepatic circulation of bile acids. […] These studies of the major bile acid species were later extended in animal model systems to include various chemical derivatives of bile acids. However, the affinity of the human ileal/renal bile acid transporter for these natural bile acids has never been studied systematically. In addition to bile acids, the transport of other organic anions has been studied. […] The Km, Vmax, and Ki values were determined using Eadie-Hofstee and Dixon plot analysis.
# [2] = tested on: cholestasis; conditions: patients with cholestasis; cited from earlier work
# [3] = target: T2, ileal Na^+ /bile acid cotransporter (IBAT) (Cricetulus griseus, UniProt Q60414); assay: Competition for [^3 H]taurocholate uptake in pIBAT-transfected COS cells (transport specificity, FIG. 6A); format: cell-based, hamster; conditions: for effect on [^3 H]taurocholate uptake (in words): 50 μM competitor, compared with taurocholate; for inhibition of [^3 H]taurocholate uptake: 50 μM unlabeled competitor, 5 μM [^3 H]taurocholate (10-fold molar excess)
# T2 construct: The hamster IBAT cDNA encodes a protein of 348 amino acids; expressed in transfected cells; host or cells: COS-1 cells, transient DEAE-dextran transfection with pIBAT (cDNA in pCMX)
# T2 sequence (Q60414 1-348): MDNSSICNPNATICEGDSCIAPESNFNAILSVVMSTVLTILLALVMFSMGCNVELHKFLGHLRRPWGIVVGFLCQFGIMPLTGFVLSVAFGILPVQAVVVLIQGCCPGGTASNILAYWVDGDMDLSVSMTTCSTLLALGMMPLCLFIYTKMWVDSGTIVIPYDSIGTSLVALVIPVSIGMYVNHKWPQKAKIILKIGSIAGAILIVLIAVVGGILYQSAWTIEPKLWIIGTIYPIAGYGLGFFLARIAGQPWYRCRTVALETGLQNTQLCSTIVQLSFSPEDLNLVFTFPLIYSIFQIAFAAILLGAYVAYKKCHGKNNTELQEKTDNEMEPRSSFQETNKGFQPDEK
# Description: FIG. 6A. Transport specificity of pIBAT-transfected COS cells in the presence of competitors. COS cells were plated and transfected as described in the description of FIG. 4 (immediately above).
# (§1) On day 0, dishes of 1.50×10^6 cells per 100-mm dish were plated in medium A. On day 1, the cells were transfected by the DEAE-dextran method (Esser et al., 1988) with 5 μg plasmid DNA. […] After the indicated amount of time at 37° C., the medium was removed, and each cell monolayer was washed and processed to determine cell-associated protein and radioactivity as described above.
# To examine the transport specificity of the IBAT protein, COS cells were transfected with the IBAT cDNA and incubated with 50 μM unlabeled bile acid or other competitor.
# [4] = target: T1, human ileal/renal bile acid transporter; assay: Anion specificity of taurocholate uptake in HIBAT-transfected COS cells; conditions: for Taurocholate Uptake, percentage of control: control = uptake in the presence of NaCl, 15 min, 137000 µM; for taurocholate uptake on replacing chloride (in words): anion in place of chloride
# Description: COS cells were seeded (1.5×10^6 cells/100 mm dish) in DMEM and transfected the following day with pCMV5-HIBAT or pCMV2-βgalactosidase (5 μg) by the DEAE-dextran method. On day 2, each group of transfected cells was treated with trypsin, pooled, and replated in 24-well culture plates at 7×10^4 cells/well. […] The cells were then lysed in 0.1N NaOH and aliquots were taken to determine protein and cell-associated radioactivity. […] Data are also given as percentage of control (uptake in the presence of NaCl).
# [5] = tested on: ileal transporter; conditions: in vivo; cited from earlier work
# [6] = tested on: liver taurocholate uptake; conditions: cited from earlier work
# [7] = tested on: liver membranes; conditions: cited from earlier work
# [8] = target: T2, ileal Na^+ /bile acid cotransporter (IBAT); assay: Inhibition of [^3 H]taurocholate uptake by organic anions in pIBAT-transfected COS cells (FIG. 6B); format: cell-based, hamster; conditions: 100 μM unlabeled inhibitor, 5 μM [^3 H]taurocholate
# Description: FIG. 6B. […] COS cells were plated and transfected as described in the description of FIG. 4 (immediately above).
# as §1
# [9] = target: T2, ileal Na^+ /bile acid cotransporter (IBAT); assay: Sodium-dependence of taurocholate uptake in IBAT-transfected COS cells; format: cell-based, hamster
# Description: as §1
# [10] = target: T3, human ileal/renal bile acid transporter (Homo sapiens, UniProt Q12908); assay: Cation specificity of taurocholate uptake in HIBAT-transfected COS cells; format: cell-based; conditions: 137 mM cation, 5 μM [^3 H]taurocholate, 15 min, 37° C., mean±SD of triplicate
# T3 construct: were fused to make a single clone encoding the entire gene; expressed in transfected cells; host or cells: COS cells, transient DEAE-dextran transfection with pCMV5-HIBAT
# T3 sequence (Q12908 1-348 S171A): T1 sequence (Q12908 1-348 S171A)
# Description: (§2) COS cells were seeded (1.5×10^6 cells/100 mm dish) in DMEM and transfected the following day with pCMV5-HIBAT or pCMV2-βgalactosidase (5 μg) by the DEAE-dextran method. On day 2, each group of transfected cells was treated with trypsin, pooled, and replated in 24-well culture plates at 7×10^4 cells/well. […] The cells were then lysed in 0.1N NaOH and aliquots were taken to determine protein and cell-associated radioactivity. […] Data are also given as percentage of control (uptake in the presence of sodium).
# [11] = tested on: ileal/renal bile acid transporter; conditions: cation replacing Na^+; cited from earlier work
# [12] = target: T1, human ileal/renal bile acid transporter; assay: Cation specificity of taurocholate uptake in HIBAT-transfected COS cells; format: cell-based; parameters: were fused to make a single clone encoding the entire gene; expressed in transfected cells; host or cells: COS cells, transient DEAE-dextran transfection with pCMV5-HIBAT; conditions: for Taurocholate Uptake, percentage of control: control = uptake in the presence of sodium, 15 min, 137000 µM
# Description: as §2
compound,measurement,setting,value
"C[C@H](CCC(=O)O)[C@H]1CC[C@H]2[C@@H]3[C@@H](O)C[C@@H]4C[C@H](O)CC[C@]4(C)[C@H]3CC[C@]12C [Ursodeoxycholate, Ursodeoxycholic acid]",Ki,[1],77.1 ± 17.2 µM
same,treatment outcome (in words),[2],"improves liver function, but does not stop the progression of the disease"
NCCS(=O)(=O)O [taurine],effect on [^3 H]taurocholate uptake (in words),[3],limited effect
C[C@H](CCC(=O)O)[C@H]1CC[C@H]2[C@@H]3[C@H](O)C[C@@H]4C[C@H](O)CC[C@]4(C)[C@H]3CC[C@]12C [Chenodeoxycholate],Ki,[1],3.3 ± 1.9 µM
Cl [Chloride],"Taurocholate Uptake, percentage of control",[4],100%
C=CC1=C(C)/C(=C/c2[nH]c(Cc3[nH]c(/C=C4\NC(=O)C(C)=C4C=C)c(C)c3CCC(=O)O)c(CCC(=O)O)c2C)NC1=O [bilirubin],effect against the ileal transporter (in words),[5],ineffective
same,competition for liver taurocholate uptake (in words),[6],compete for liver taurocholate uptake
"O=S(=O)(O)c1cc(N=C=S)ccc1C=Cc1ccc(N=C=S)cc1S(=O)(=O)O [DIDS, 4,4'-diisothiocyano-2,2'-disulfonic acid stilbene]",effect against the ileal transporter (in words),[5],ineffective
same,inhibition of Na^+ -dependent taurocholate uptake (in words),[7],shown to inhibit
same,inhibition of [^3 H]taurocholate uptake (in words),[8],not to be significantly inhibited
same,inhibition of [^3 H]taurocholate uptake (in words),"[8]; listed as 4,4'-diisothiocyano-2,2'-disulfonic acid stilbene (DIDS)",not inhibited
same,competition for liver taurocholate uptake (in words),[6],compete for liver taurocholate uptake
C[C@H](CCC(=O)O)[C@H]1CC[C@H]2[C@@H]3CC[C@@H]4C[C@H](O)CC[C@]4(C)[C@H]3C[C@H](O)[C@]12C [Deoxycholate],Ki,[1],6.4 ± 2.5 µM
CC1(C)C(/C=C/C=C/C=C/C=C2\N(CCCCS(=O)(=O)O)c3ccc4ccccc4c3C2(C)C)=[N+](CCCCS(=O)(=O)[O-])c2ccc3ccccc3c21 [indocyanine green],effect against the ileal transporter (in words),[5],ineffective
same,competition for liver taurocholate uptake (in words),[6],compete for liver taurocholate uptake
phalloidin,effect against the ileal transporter (in words),[5],ineffective
same,competition for liver taurocholate uptake (in words),[6],compete for liver taurocholate uptake
C[C@H](CCC(=O)NCCS(=O)(=O)O)[C@H]1CC[C@H]2[C@@H]3[C@@H](O)C[C@@H]4C[C@H](O)CC[C@]4(C)[C@H]3CC[C@]12C [Tauroursodeoxycholate],Ki,[1]; read-out: Apparent Ki,28.4 ± 7.4 µM
O=S(=O)(O)O [Sulfate],"Taurocholate Uptake, percentage of control",[4],69%
[K+] [Potassium],support of [^3 H]taurocholate uptake (in words),"[9]; in place of 137 mM Na^+, equal concentration",unable to support
same,Taurocholate Uptake,[10],0.3 ± 0.17 pmol/min/mg
same,effect of replacing Na^+ on active taurocholate transport (in words),[11],significantly inhibited
same,taurocholate uptake on replacing Na^+ (in words),[12]; cation replacing Na^+,dramatically reduced
same,"Taurocholate Uptake, percentage of control",[12],3%
"C[C@H](CCC(=O)NCCS(=O)(=O)O)[C@H]1CC[C@H]2[C@@H]3CC[C@@H]4C[C@H](O)CC[C@]4(C)[C@H]3C[C@H](O)[C@]12C [Taurodeoxycholate, taurodeoxycholate]",Ki,[1],17.3 ± 3.9 µM
same,effect on [^3 H]taurocholate uptake (in words),[3],competed more effectively
same,effect on [^3 H]taurocholate uptake (in words),[3]; listed as taurodeoxycholic acid,more effective competitors
same,inhibition of [^3 H]taurocholate uptake,[3],80%
C[C@H](CCC(=O)O)[C@H]1CC[C@H]2[C@@H]3[C@H](O)C[C@@H]4C[C@H](O)CC[C@]4(C)[C@H]3C[C@H](O)[C@]12C [Cholate],inhibition of [^3 H]taurocholate uptake,[3],51%
Phosphate,taurocholate uptake on replacing chloride (in words),[4],markedly reduced
same,"Taurocholate Uptake, percentage of control",[4],31%
O=C(O)CC(O)(CC(=O)O)C(=O)O [Citrate],taurocholate uptake on replacing chloride (in words),[4],markedly reduced
[Rb] [Rubidium],Taurocholate Uptake,[10],0.3 ± 0.09 pmol/min/mg
same,effect of replacing Na^+ on active taurocholate transport (in words),[11],significantly inhibited
same,"Taurocholate Uptake, percentage of control",[12],3%
[Cs+] [Cesium],Taurocholate Uptake,[10],0.2 ± 0.01 pmol/min/mg
same,effect of replacing Na^+ on active taurocholate transport (in words),[11],significantly inhibited
same,"Taurocholate Uptake, percentage of control",[12],2%
"CC(=O)O [Acetate, sodium acetate]",taurocholate uptake on replacing chloride (in words),[4],markedly reduced
[Li] [Lithium],Taurocholate Uptake,[10],0.3 ± 0.04 pmol/min/mg
same,effect of replacing Na^+ on active taurocholate transport (in words),[11],significantly inhibited
"C[C@H](CCC(=O)NCCS(=O)(=O)O)[C@H]1CC[C@H]2[C@@H]3[C@H](O)C[C@@H]4C[C@H](O)CC[C@]4(C)[C@H]3CC[C@]12C [Taurochenodeoxycholate, taurochenodeoxycholate]",Ki,[1]; read-out: Apparent Ki,3.2 ± 0.5 µM
same,effect on [^3 H]taurocholate uptake (in words),[3],competed more effectively
same,effect on [^3 H]taurocholate uptake (in words),[3]; listed as taurochenodeoxycholic acid,more effective competitors
same,inhibition of [^3 H]taurocholate uptake,[3],87%
[Na+] [Sodium],taurocholate uptake (100% of control value),"[9]; 137 mM sodium, 5 μM [^3 H]taurocholate, 15 minutes",134±26 pmoles min^-1 mg^-1 protein
same,Taurocholate Uptake,[10],9.2 ± 0.41 pmol/min/mg
same,"Taurocholate Uptake, percentage of control",[12],100%
"O=C1OC(c2ccc(O)c(S(=O)(=O)O)c2)(c2ccc(O)c(S(=O)(=O)O)c2)c2c(Br)c(Br)c(Br)c(Br)c21 [BSP, bromosulfophthalein]",inhibition of Na^+ -dependent taurocholate uptake (in words),[7],shown to inhibit
same,inhibition of [^3 H]taurocholate uptake (in words),[8],not to be significantly inhibited
same,inhibition of [^3 H]taurocholate uptake (in words),[8]; listed as bromosulfophthalein (BSP),not inhibited
